Test results reported in ChEMBL document CHEMBL1142394, “Morphinane alkaloid dimers from Sinomenium acutum” (J Nat Prod, 2008).

Columns and labels:
[1] = test system: A549; experiment: Cytotoxicity against human A549 cells by MTT assay; format: functional, cell-based
[2] = test system: HeLa; experiment: Cytotoxicity against human HeLa cells by MTT assay; format: functional, cell-based

SMILES | IC50 [1] | IC50 [2]
COC1=C[C@@H]2[C@@H]3Cc4c(-c5cc(OC)c(O)c6c5C[C@H]5[C@H]7C=C(OC)C(=O)C[C@@]67CCN5C)cc(OC)c(O)c4[C@]2(CCN3C)CC1=O | 71.8 µM | 70.7 µM
COC1=C[C@@H]2[C@@H]3Cc4cc(-c5cc6c(c(O)c5OC)[C@@]57CCN(C)[C@@H](C6)[C@H]5C=C(OC)C(=O)C7)c(OC)c(O)c4[C@]2(CCN3C)CC1=O | 65.5 µM | 71.7 µM
